pIC50, pKi: −log10 of the molar value.

From ChEMBL document CHEMBL1909046, “DrugMatrix in vitro pharmacology data” come the findings set out here.

Assay [1] is described as follows: DRUGMATRIX: Calcium Channel Type L, Benzothiazepine radioligand binding (ligand: [3H] Diltiazem). Format: cell membranes, Rattus norvegicus, Wistar, Brain, Membrane. As to conditions: Not Active = under 50% inhibition at 10 µM; for pIC50: read-out: IC50; for pKi: read-out: Ki.
In assay [2] the target is 5-hydroxytryptamine receptor 4 (Cavia porcellus, UniProt O70528). Type of assay: cell membranes, Dunkin-Hartley, Striatum, Membrane. Also: in other assays of this panel Not Active means under 50% inhibition at 10 µM.
5-hydroxytryptamine receptor 4, sequence (O70528 whole entry): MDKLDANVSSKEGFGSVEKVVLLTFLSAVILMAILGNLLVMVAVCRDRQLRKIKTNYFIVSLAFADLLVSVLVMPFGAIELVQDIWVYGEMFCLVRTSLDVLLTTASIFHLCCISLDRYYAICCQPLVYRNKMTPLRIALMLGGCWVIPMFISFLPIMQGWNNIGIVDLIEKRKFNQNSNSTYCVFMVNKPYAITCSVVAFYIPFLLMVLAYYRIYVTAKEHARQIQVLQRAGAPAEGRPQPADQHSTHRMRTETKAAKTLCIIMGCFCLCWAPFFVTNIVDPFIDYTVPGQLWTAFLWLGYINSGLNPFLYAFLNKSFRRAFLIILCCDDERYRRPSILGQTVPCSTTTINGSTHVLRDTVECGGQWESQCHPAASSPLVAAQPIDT
Assay [3] deals with Prostaglandin G/H synthase 1 (Homo sapiens, UniProt P23219). The experiment in a line: biochemical. Type of assay: tissue-based, Platelet. Particulars: for IC50 / Ki: platelet.
Prostaglandin G/H synthase 1, sequence (P23219 whole entry): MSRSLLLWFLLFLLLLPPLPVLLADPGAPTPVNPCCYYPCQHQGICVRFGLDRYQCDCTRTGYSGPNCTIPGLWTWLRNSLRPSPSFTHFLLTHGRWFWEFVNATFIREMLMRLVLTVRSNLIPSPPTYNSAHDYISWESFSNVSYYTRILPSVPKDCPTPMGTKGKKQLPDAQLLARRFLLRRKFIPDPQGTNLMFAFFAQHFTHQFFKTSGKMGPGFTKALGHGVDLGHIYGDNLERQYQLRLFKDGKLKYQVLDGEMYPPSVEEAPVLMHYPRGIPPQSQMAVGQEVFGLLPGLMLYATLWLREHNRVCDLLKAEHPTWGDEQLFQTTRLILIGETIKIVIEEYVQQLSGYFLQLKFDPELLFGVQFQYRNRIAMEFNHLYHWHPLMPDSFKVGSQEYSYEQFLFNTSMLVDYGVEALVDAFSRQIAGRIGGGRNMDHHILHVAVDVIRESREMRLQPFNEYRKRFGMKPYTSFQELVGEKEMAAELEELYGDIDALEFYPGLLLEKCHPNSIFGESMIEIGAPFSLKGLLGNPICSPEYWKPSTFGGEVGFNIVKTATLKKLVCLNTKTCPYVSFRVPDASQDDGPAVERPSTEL
A short description of assay [4]: DRUGMATRIX: GABAA, Chloride Channel, TBOB radioligand binding (ligand: [3H] TBOB). Format: cell membranes, Rattus norvegicus, Wistar, Cerebral cortex, Membrane. Particulars: Not Active = under 50% inhibition at 10 µM.
The target in the next assay is Adenosine receptor A2a (Homo sapiens, UniProt P29274). The experiment in a line: DRUGMATRIX: Adenosine A2A radioligand binding (ligand: […]). Type of assay: cell membranes, HEK293, Membrane. Particulars: hek293; Not Active = under 50% inhibition at 10 µM.
Adenosine receptor A2a, sequence (P29274 whole entry): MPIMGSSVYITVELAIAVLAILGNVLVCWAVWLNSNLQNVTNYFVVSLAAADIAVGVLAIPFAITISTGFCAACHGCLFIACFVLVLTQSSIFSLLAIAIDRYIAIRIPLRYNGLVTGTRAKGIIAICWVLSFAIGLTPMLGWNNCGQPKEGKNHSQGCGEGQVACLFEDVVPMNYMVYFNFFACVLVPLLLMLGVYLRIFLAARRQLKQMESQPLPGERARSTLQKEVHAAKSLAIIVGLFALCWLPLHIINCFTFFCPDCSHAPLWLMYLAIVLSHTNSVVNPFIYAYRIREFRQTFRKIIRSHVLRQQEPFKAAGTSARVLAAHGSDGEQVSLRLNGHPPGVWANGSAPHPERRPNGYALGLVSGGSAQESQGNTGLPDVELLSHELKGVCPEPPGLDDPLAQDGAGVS

In the case of `C[N+](C)(C)CCOC(N)=O.[Cl-]` [CARBACHOL], the IC50 entry (in assay [1]; in assay [2]; in assay [3]; in assay [4]; at Adenosine receptor A2a) was “Not Active” in each case. The Ki entry in assay [1] and in assay [4] was “Not Active” throughout.
On to `C[C@]12CC[C@@H](O)C[C@@H]1CC[C@@H]1[C@@H]2CC[C@]2(C)C(=O)CC[C@@H]12` [ANDROSTERONE], for which the IC50 result (in assay [1]; in assay [2]; in assay [3]; in assay [4]; on Adenosine receptor A2a) was “Not Active” in each case. In addition, the Ki entry in assay [1] and in assay [4] was “Not Active” throughout.
In the case of `C[C@H](C(=O)O)c1ccc2oc(-c3ccc(F)cc3)nc2c1` [FLUNOXAPROFEN], the IC50 entry (in assay [1]; in assay [2]; in assay [3]; in assay [4]; on Adenosine receptor A2a) was “Not Active” throughout. Besides, the Ki result in assay [1] and in assay [4] was “Not Active” in each case.
With COPPER(II) OXIDE, the IC50 entry (in assay [1]; in assay [2]; in assay [3]; in assay [4]; on Adenosine receptor A2a) was “Not Active” each time. Moreover, the Ki entry (in assay [1]; in assay [2]; in assay [3]; in assay [4]; at Adenosine receptor A2a) was “Not Active” in each case.
Consider `NC(=O)CN1CCCC1=O`, for which the IC50 result (in assay [1]; in assay [2]; in assay [3]; in assay [4]; at Adenosine receptor A2a) was “Not Active” throughout. Also, the Ki result in assay [1] and in assay [4] was “Not Active” throughout.
On to `O=C1c2ccccc2C(=O)C1c1ccccc1` [PHENINDIONE], for which the IC50 result (in assay [1]; in assay [2]; in assay [3]; in assay [4]; on Adenosine receptor A2a) was “Not Active” each time. Moreover, the Ki result in assay [1] and in assay [4] was “Not Active” each time.
Consider `CCN1C[C@]2(COC)[C@H](O)C[C@H](OC)[C@@]34[C@@H]5C[C@@]6(O)[C@H](OC(=O)c7ccccc7)[C@@H]5[C@@](OC(C)=O)([C@@H]([C@H](OC)[C@H]23)[C@@H]14)[C@@H](O)[C@@H]6OC` [ACONITINE], for which the IC50 result (in assay [1]; in assay [2]; in assay [3]; in assay [4]; on Adenosine receptor A2a) was “Not Active” each time. The Ki entry in assay [1] and in assay [4] was “Not Active” throughout.
For the compound `O=C(NCCN1CCOCC1)c1ccc(Cl)cc1` [MOCLOBEMIDE], the IC50 result (in assay [1]; in assay [2]; in assay [3]; in assay [4]; at Adenosine receptor A2a) was “Not Active” throughout. The Ki entry in assay [1] and in assay [4] was “Not Active” throughout.
`O=C(O)COC(=O)Cc1ccccc1Nc1c(Cl)cccc1Cl` [ACECLOFENAC]: the IC50 entry (in assay [1]; in assay [2]; in assay [3]; in assay [4]; at Adenosine receptor A2a) was “Not Active” each time. For the same compound, the Ki entry in assay [1] and in assay [4] was “Not Active” in each case.
For `COc1cc(/C=C/C(=O)O)ccc1O` [FERULATE], the IC50 entry (in assay [1]; in assay [2]; in assay [3]; in assay [4]; at Adenosine receptor A2a) was “Not Active” in each case. Also, the Ki entry in assay [1] and in assay [4] was “Not Active” each time.
In the case of `O=c1[nH]c2ccccc2c2ccccc12`, the IC50 entry (in assay [1]; in assay [2]; in assay [3]; in assay [4]; at Adenosine receptor A2a) was “Not Active” throughout. The Ki result in assay [1] and in assay [4] was “Not Active” in each case.
Take `COc1ccc(C[C@H](N)C(=O)N[C@H]2[C@@H](O)[C@H](n3cnc4c(N(C)C)ncnc43)O[C@@H]2CO)cc1` [PUROMYCIN]: the IC50 result (in assay [1]; in assay [2]; in assay [3]; in assay [4]; on Adenosine receptor A2a) was “Not Active” throughout. In addition, the Ki entry in assay [1] and in assay [4] was “Not Active” in each case.
With `NC(=O)NC(=O)Cc1ccccc1` [PHENACEMIDE], the IC50 entry (in assay [1]; in assay [2]; in assay [3]; in assay [4]; at Adenosine receptor A2a) was “Not Active” each time. The Ki result in assay [1] and in assay [4] was “Not Active” each time.
What is called pIC50 is the negative decadic logarithm of the IC50, by convention in mol/L. A word on the pKi: it is −log10 of the Ki, conventionally taken in molar units. For `COc1ccccc1OCCNCC(O)COc1cccc2[nH]c3ccccc3c12` (configuration not stated) [CARVEDILOL], the pIC50 in assay [1] is 6.21; in assay [2] (read-out: IC50), 5.96. Also, the pKi was 6.26 in assay [1] and 6.74 in assay [2] (read-out: Ki). Besides, the IC50 result (in assay [3]; in assay [4]; at Adenosine receptor A2a) was “Not Active” throughout. For the same compound, in assay [4], the Ki entry was “Not Active”.
With `CC(N)Cc1c[nH]c2ccc(OCc3cccs3)cc12` (configuration not stated) [BW-723C86], the pIC50 in assay [1] is 5.46. Besides, the pKi in assay [1] is 5.51. In addition, the IC50 result (in assay [2]; in assay [3]; in assay [4]; on Adenosine receptor A2a) was “Not Active” in each case. The Ki entry in assay [4] is given as “Not Active”.
Take `c1ccc2c(c1)Nc1ccccc1S2` [PHENOTHIAZINE]: the IC50 result (in assay [1]; in assay [2]; in assay [4]; on Adenosine receptor A2a) was “Not Active” throughout. For the same compound, the Ki result in assay [1] and in assay [4] was “Not Active” throughout. In addition, in assay [3] (read-out: IC50), the pIC50 is 6.71.
For the compound POVIDONE, the IC50 entry (in assay [1]; in assay [2]; in assay [3]; in assay [4]; on Adenosine receptor A2a) was “Not Active” throughout. The Ki result (in assay [1]; in assay [2]; in assay [3]; in assay [4]; on Adenosine receptor A2a) was “Not Active” in each case.
Regarding `CCO` [ALCOHOL], the IC50 entry (in assay [1]; in assay [2]; in assay [3]; in assay [4]; on Adenosine receptor A2a) was “Not Active” throughout. Moreover, the Ki entry in assay [1] and in assay [4] was “Not Active” in each case.
Consider `Clc1cc(Cl)c(OCC#CI)cc1Cl` [HALOPROGIN], for which the IC50 result (in assay [1]; in assay [2]; in assay [3]; in assay [4]; on Adenosine receptor A2a) was “Not Active” each time. In addition, the Ki result in assay [1] and in assay [4] was “Not Active” in each case.
On to CHROMIC CHLORIDE, for which the IC50 entry (in assay [1]; in assay [2]; in assay [3]; in assay [4]; at Adenosine receptor A2a) was “Not Active” throughout. In addition, the Ki entry (in assay [1]; in assay [2]; in assay [3]; in assay [4]; at Adenosine receptor A2a) was “Not Active” in each case.
On to `Nc1ccc(Cc2ccc(N)cc2)cc1`, for which the IC50 result (in assay [1]; in assay [2]; in assay [3]; in assay [4]; at Adenosine receptor A2a) was “Not Active” in each case. Moreover, the Ki result in assay [1] and in assay [4] was “Not Active” in each case.
In the case of `COc1cc([C@@H]2c3cc4c(cc3[C@H](O)[C@H]3COC(=O)[C@H]23)OCO4)cc(OC)c1OC` [PODOFILOX], the IC50 result (in assay [1]; in assay [2]; in assay [3]; in assay [4]; at Adenosine receptor A2a) was “Not Active” throughout. The Ki result in assay [1] and in assay [4] was “Not Active” throughout.
In the case of `OC[C@H]1OC2C3[C@@H](CO)OC(O[C@H]4[C@H](O)[C@@H](O)[C@@H](O[C@H]5[C@H](O)[C@@H](O)[C@@H](O[C@H]6[C@H](O)[C@@H](O)[C@@H](O[C@H]7[C@H](O)[C@@H](O)[C@@H](O[C@H]8[C@H](O)[C@@H](O)[C@@H](O[C@H]9[C@H](O)[C@@H](O)C(OC1[C@H](O)[C@H]2O)O[C@@H]9CO)O[C@@H]8CO)O[C@@H]7CO)O[C@@H]6CO)O[C@@H]5CO)O[C@@H]4CO)[C@H](O)[C@H]3O`, the IC50 entry (in assay [1]; in assay [2]; in assay [3]; in assay [4]; on Adenosine receptor A2a) was “Not Active” throughout. Also, the Ki result in assay [1] and in assay [4] was “Not Active” each time.
Regarding `Nc1ccc(C(=O)O)c(O)c1` [AMINOSALICYLIC ACID], the IC50 result (in assay [1]; in assay [2]; in assay [3]; in assay [4]; on Adenosine receptor A2a) was “Not Active” each time. The Ki result in assay [1] and in assay [4] was “Not Active” in each case.
For `O=c1[nH]cnc2c1ncn2[C@H]1CC[C@@H](CO)O1` [DIDANOSINE], the IC50 entry (in assay [1]; in assay [2]; in assay [3]; in assay [4]; at Adenosine receptor A2a) was “Not Active” in each case. The Ki result in assay [1] and in assay [4] was “Not Active” each time.
Consider `CC(C)Cc1ccc([C@H](C)C(=O)O)cc1` [DEXIBUPROFEN], for which the IC50 result (in assay [1]; in assay [2]; in assay [4]; on Adenosine receptor A2a) was “Not Active” each time. The Ki result in assay [1] and in assay [4] was “Not Active” each time.
As for `O=C(O)CCc1nc(-c2ccccc2)c(-c2ccccc2)o1` [OXAPROZIN], the IC50 entry (in assay [1]; in assay [2]; in assay [4]; on Adenosine receptor A2a) was “Not Active” in each case. The Ki entry in assay [1] and in assay [4] was “Not Active” throughout.
